Experiment: Tissue penetration of topically applied peptide by immunohistochemistry (anti-ShK mAb P3B3) in rat pinna
Type: in vivo
Details: 10 doses, rat pinna sections 48 hours post-challenge (DTH study)
Description: This example describes the method of detection of toxin-based therapeutic peptides of the disclosure, such as ShK-186 (SEQ ID NO:217) or ShK-198 (SEQ ID NO:210) penetration after topical administration.
Materials: All Bond reagents such Bond HIER 1 (Citrate), Bond HIER 2 (EDTA), Bond Primary antibody diluent, Bond dewax solution, Bond Wash solution, Bond Polymer Refine (DAB) detection rack including peroxide block, polymer/hematoxylin, Bond Alcohol and the Leica Bond Automated Immunostainer were purchased from Leica-microsystems.
ShK specific antibody: Hybridoma fusions were performed using the isolated splenocytes from ShK-186 immunized mice and clones producing specific monoclonal antibodies against ShK-186 and ShK-198 were isolated. These cultures were subjected to a second cloning process using the limited dilution method and selected for stable expression of the specific mAb. Stable clones were expanded, tested for antibody specificity to ShK-186 (and ShK parent) by ELISA, and their isotypes were identified using the Roche Isostrips and confirmed by ELISA. For ELISA testing, culture supernatants were diluted from 1:4-1:256 and the titer was determined to be the last dilution 2 standard deviations above background. Clone P3B3-G11-C12 is purified from hybridoma extinction cultures and concentrated to 1 mg/ml. […]

**Q.** Which “Tissue penetration of the peptide into rat pinna (dark staining with ShK specific monoclonal antibody P3B3)” value (1% solution of ShK-186, topical) does the source give for “(L-PhosphoTyr)-AEEAc-RSCIDTIPKSRCTAFQCKHSMKYRLSFCRKTCGTC-amide [ShK-186]” here?
**A.** perfuse and extensive penetration

**Q.** With “(L-Tyr)-AEEAc-RSCIDTIPKSRCTAFQCKHSMKYRLSFCRKTCGTC-amide [ShK-198]” as the substance, how does the “Tissue penetration of the peptide into rat pinna (dark staining with ShK specific monoclonal antibody P3B3)” value (5% solution of ShK-198, topical) read?
**A.** perfuse and extensive penetration
